From ChEMBL document CHEMBL3045780, “EGFR tyrosine kinase targeted compounds: synthesis, docking study, and in vitro antitumor activity of some new quinazoline and benzo[d]isothiazole derivatives” (Med Chem Res, 2011)
Values after ≈ are worked out from the molar mass of the structure shown.

Each molecule was assayed on MCF7 (assay: Cytotoxicity against Homo sapiens (human) MCF7 cells after 48 hr by SRB assay). Conditions: MCF7, 48 h.
Type: functional, cell-based

| Compound | IC50 [µg/mL] |
| --- | --- |
| c1ccc2c(Nc3ccc(Nc4ncnc5ccccc45)cc3)ncnc2c1 | 0.06 (≈ 0.165 µM) |
| O=S1(=O)N=C(Nc2ccc(NC3=NS(=O)(=O)c4ccccc43)cc2)c2ccccc21 | 2.76 (≈ 6.29 µM) |
| c1ccc2c(NCCNc3ncnc4ccccc34)ncnc2c1 | 2.04 (≈ 6.45 µM) |
| O=S1(=O)N=C(NCCNC2=NS(=O)(=O)c3ccccc32)c2ccccc21 | 3.69 (≈ 9.45 µM) |
| NS(=O)(=O)c1ccc(NC2=NS(=O)(=O)c3ccccc32)cc1 | 4.17 (≈ 12.4 µM) |
| N=C(N)NS(=O)(=O)c1ccc(NC2=NS(=O)(=O)c3ccccc32)cc1 | 4.3 (≈ 11.3 µM) |
| NS(=O)(=O)c1ccc(NNc2ncnc3ccccc23)cc1 | 1.13 (≈ 3.58 µM) |
| N=C(N)NS(=O)(=O)c1ccc(NNc2ncnc3ccccc23)cc1 | 1.65 (≈ 4.62 µM) |
| NS(=O)(=O)c1ccc(NNC2=NS(=O)(=O)c3ccccc32)cc1 | 3.73 (≈ 10.6 µM) |
| N=C(N)NS(=O)(=O)c1ccc(NNC2=NS(=O)(=O)c3ccccc32)cc1 | 4.35 (≈ 11 µM) |
| c1ccc(-c2nnc(Nc3ncnc4ccccc34)s2)cc1 | 3.61 (≈ 11.8 µM) |
| Clc1ccc(-c2nnc(Nc3ncnc4ccccc34)s2)cc1 | 2.04 (≈ 6 µM) |
| O=S1(=O)N=C(Nc2nnc(-c3ccccc3)s2)c2ccccc21 | 2.92 (≈ 8.53 µM) |
| O=S1(=O)N=C(Nc2nnc(-c3ccc(Cl)cc3)s2)c2ccccc21 | 2.92 (≈ 7.75 µM) |
| c1cc(Nc2ncnc3ccccc23)cc(Nc2ncnc3ccccc23)c1 | 2.04 (≈ 5.6 µM) |
| O=S1(=O)N=C(Nc2cccc(NC3=NS(=O)(=O)c4ccccc43)c2)c2ccccc21 | 3.14 (≈ 7.16 µM) |
| O=C(NS(=O)(=O)c1ccc(Cl)cc1)n1cnc2ccccc2c1=O | 3.74 (≈ 10.3 µM) |
| Cc1ccc(S(=O)(=O)NC(=O)n2cnc3ccccc3c2=O)cc1 | 3.96 (≈ 11.5 µM) |
| O=C(NS(=O)(=O)c1ccc(Cl)cc1)N1C(=O)c2ccccc2S1(=O)=O | 6.03 (≈ 15 µM) |
| Cc1ccc(S(=O)(=O)NC(=O)N2C(=O)c3ccccc3S2(=O)=O)cc1 | 5.65 (≈ 14.9 µM) |
| NS(=O)(=O)c1ccc(Nc2ncnc3ccccc23)cc1 | 2.4 (≈ 7.99 µM) |
| N=C(N)NS(=O)(=O)c1ccc(Nc2ncnc3ccccc23)cc1 | 1.85 (≈ 5.4 µM) |
